Data as given in US4638003A, “1-(4-alkylthiophenyl)-2-(substituted or unsubstituted piperazine-1-yl)-1,3-propanediol, pharmaceutical compositions containing them useful as antiarrhythmic and vasodilating agents” (Zambon S.p.A., priority 1983, dated 1987).
Structures can show the parent of a compound that is named as a salt.

Legend:
[1] = system: isolated rabbit aorta (vascular smooth muscle); assay: calcium antagonist activity on isolated rabbit aorta (CaCl2-induced contraction)
Excerpt: Isolated rabbit aorta: ratio between the CaCl2 con-

anesthetized rat [2] = assay: antiarrhythmic activity against calcium chloride-induced arrhythmia after intravenous administration in anesthetized rat; format: in vivo; conditions: for ED50: Rattus norvegicus, iv, ten minutes before calcium chloride, read-out: ED50 (dose effective to antagonize the appearance of arrythmia in the 50% of the treated animals)
Procedure: The evaluation of the antiarrhythmic activity has been performed in the anesthetized rat with the method of M. Malinov et al. (Am. J. Physiol. 172, 743-746, 1953).
Arrythmia has been induced by administering (0.25 ml in 30 seconds) a saline solution containing 15% of calcium chloride into the jugular vein.
In these experimental conditions arrythmia occurs in the 90% of the animals. The compounds have been administered intravenously ten minutes before calcium chloride. The antiarrythmic activity has been referred as dose effective to antagonize the appearance of arrythmia in the 50% of the treated animals (ED50).

anesthetized rat [3] = assay: coronary dilating activity (coronary spasm induced by Vasopressin, T wave in E.C.G.) in anesthetized rat; format: in vivo; conditions: T wave restored in 50% of the animals within 2 minutes; for ED50: Rattus norvegicus, iv, 2 min
Excerpt: The evaluation of the coronary dilating activity has been performed with the method of O. Nieschultz, et al. (Arzneim. Forsch. 5, 680, 1955).

anesthetized rat [4] = assay: in vivo; format: in vivo; conditions: for Tolerability: Heart rate (-20%): i.v., compounds solubilized in 40% glyceril formal; for Therapeutic index: ratio between the dose inducing bradycardia 20 and the effective anti-anginal dose 50
Excerpt: (§1) Furthermore, tolerability has been tested in the same experimental conditions in which it has been performed the pharmacological study in vivo.
(§2) Tolerability has been referred as effective dose to reduce heart rate of 20%. Therapeutic index has been determined as ratio between the dose inducing bradycardia 20 and the effective anti-anginal dose 50.

in vivo = format: in vivo; conditions: rat, in vivo, iv, ratio between the dose inducing bradycardia 20 and the effective anti-anginal dose 50; read-out: Therapeutic index
Excerpt: as §1, §2

[5] = concentration in perfused liquid 10^-5 M
[6] = concentration in perfused liquid 10^-6 M
[7] = read-out: Coronary dilating activity ED50, i.v. 60 seconds after Vasopressin
[8] = i.v. 60 seconds after Vasopressin
[9] = i.v. 60 seconds after Vasopressin, read-out: Coronary dilating activity ED50

SMILES | ratio between the CaCl2 concentration producing the 50% contraction in presence or in absence of various compounds [1, 5] | ratio between the CaCl2 concentration producing the 50% contraction in presence or in absence of various compounds [1, 6] | ED50 (anesthetized rat [3]; [7]) | Tolerability: Heart rate (-20%) (anesthetized rat [4]) | selectivity ratio (in vivo) | also measured
CSc1ccc([C@H](O)[C@H](CO)NC(C)CCc2ccccc2)cc1.Cl (relative stereo) [Z. 1411, (1S,2S)-1-(4-methylthiophenyl)-2-(1-methyl-3-phenylpropylamino)-1,3-propanediol hydrochloride] | 15 | 10 | 0.001 µmol/kg | 44 nmols/kg | 44 | ED50 (anesthetized rat [2]): 13 µmol/kg; number of protected rats/total number (anesthetized rat [2]; dose 8 μmols/Kg i.v.): 0/8; number of protected rats/total number (anesthetized rat [2]; dose 12 μmols/Kg i.v.): 4/8; number of protected rats/total number (anesthetized rat [2]; dose 16 μmols/Kg i.v.): 6/8
CSc1ccc([C@H](O)[C@H](CO)NC(C)c2ccccc2)cc1 (relative stereo) [Z. 1413, (1S,2S,1'S*)-1-(4-methylthiophenyl)-2-(1-methylbenzylamino)-1,3-propanediol] |  |  |  | 230 nmols/kg |  | Coronary dilating activity ED50 (anesthetized rat [3]; [8]): 4.5 nmols/kg/i.v.; Therapeutic index (anesthetized rat [4]): 51
COc1ccc(CCC(C)N[C@@H](CO)[C@@H](O)c2ccc(SC)cc2)cc1OC.Cl (relative stereo) [Z. 1434, (1S,2S)-1-(4-methylthiophenyl)-2-[1-methyl-3-(3,4-dimethoxyphenyl)-propylamino]-1,3propanediol hydrochloride] | 21 | 5 | 0.00045 µmol/kg | 42 nmols/kg | 93 | 
Fc1ccc(C(c2ccc(F)cc2)N2CCN(C/C=C/c3ccccc3)CC2)cc1 [Flunarizine, reference compound] | 16 | 1 |  |  |  | ED50 (anesthetized rat [3]; [9]): 0.00048 µmol/kg
COC(=O)C1=C(C)NC(C)=C(C(=O)OC)C1c1ccccc1[N+](=O)[O-] [Nifedipine, reference compound] |  |  |  |  |  | ED50 (anesthetized rat [3]; [9]): 0.00057 µmol/kg
CC(Cc1ccccc1)NCCC(c1ccccc1)c1ccccc1 (centres unmarked) [Prenylamine, reference compound] | 62 | 12 | 0.00184 µmol/kg | 19 nmols/kg | 11 | 
COc1ccc(CCN(C)CCCC(C#N)(c2ccc(OC)c(OC)c2)C(C)C)cc1OC (centres unmarked) [Verapamil, reference compound] |  |  | 0.00015 µmol/kg |  |  | ED50 (anesthetized rat [2]): 6 µmol/kg; number of protected rats/total number (anesthetized rat [2]; dose 4.4 μmols/Kg i.v.): 2/8; number of protected rats/total number (anesthetized rat [2]; dose 7.7 μmols/Kg i.v.): 5/8; number of protected rats/total number (anesthetized rat [2]; dose 11 μmols/Kg i.v.): 6/8
CSc1ccc([C@@H](O)[C@H](CO)NCCC(c2ccccc2)c2ccccc2)cc1 [Z. 1373] | 86 | 9 | 0.0034 µmol/kg | 23 nmols/kg | 7 | 
CSc1ccc([C@H](O)[C@H](CO)NCCC(c2ccccc2)c2ccccc2)cc1 [Z. 1382, (1S,2S)-1-(4-methylthiophenyl)-2-(3,3-diphenylpropylamino)-1,3-propanediol acid maleate] | 255 | 20 | 0.00084 µmol/kg | 17 nmols/kg | 20 | ED50 (anesthetized rat [2]): 19 µmol/kg; number of protected rats/total number (anesthetized rat [2]; dose 7.6 μmols/Kg i.v.): 1/8; number of protected rats/total number (anesthetized rat [2]; dose 13.4 μmols/Kg i.v.): 4/8; number of protected rats/total number (anesthetized rat [2]; dose 20 μmols/Kg i.v.): 3/8; number of protected rats/total number (anesthetized rat [2]; dose 27 μmols/Kg i.v.): 5/8
CSc1ccc([C@H](O)[C@H](CO)NC(C)COc2ccccc2)cc1 (some centres unmarked) [Z. 1393] |  |  | 0.0038 µmol/kg | 35 nmols/kg | 9 | 
CSc1ccc([C@H](O)[C@H](CO)NC(C)COc2ccccc2)cc1 (some centres unmarked) [Z. 1394] | 7 | 3 |  |  |  | 
CSc1ccc([C@@H](O)[C@@H](CO)NC(C)COc2ccccc2)cc1 (some centres unmarked) [Z. 1407] |  |  | 0.0032 µmol/kg | 53 nmols/kg | 17 | 
CSc1ccc([C@@H](O)[C@@H](CO)NC(C)COc2ccccc2)cc1 (some centres unmarked) [Z. 1408] |  |  |  | 76 nmols/kg |  | ED50 (anesthetized rat [2]): 35 µmol/kg; number of protected rats/total number (anesthetized rat [2]; dose 16 μmols/Kg i.v.): 1/8; number of protected rats/total number (anesthetized rat [2]; dose 32 μmols/Kg i.v.): 4/8; number of protected rats/total number (anesthetized rat [2]; dose 56 μmols/Kg i.v.): 6/8; Coronary dilating activity ED50 (anesthetized rat [3]; [8]): 3.7 nmols/kg/i.v.; Therapeutic index (anesthetized rat [4]): 21
CSc1ccc([C@H](O)[C@H](CO)NCC(C)c2ccccc2)cc1.Cl (stereo partly drawn) [Z. 1409, (1S,2S)-1-(4-methylthiophenyl)-2-(2-phenylpropylamino)-1,3-propanediol hydrochloride] | 12 | 4 | 0.00084 µmol/kg | 73 nmols/kg | 87 | ED50 (anesthetized rat [2]): 43 µmol/kg; number of protected rats/total number (anesthetized rat [2]; dose 8 μmols/Kg i.v.): 0/8; number of protected rats/total number (anesthetized rat [2]; dose 16 μmols/Kg i.v.): 2/8; number of protected rats/total number (anesthetized rat [2]; dose 24 μmols/Kg i.v.): 3/8; number of protected rats/total number (anesthetized rat [2]; dose 48 μmols/Kg i.v.): 5/8
CSc1ccc([C@H](O)[C@H](CO)NC(C)c2ccccc2)cc1 (some centres unmarked) [Z. 1414] |  |  | 0.004 µmol/kg | 100 nmols/kg |  | Therapeutic index (anesthetized rat [4]): 25
CSc1ccc([C@H](O)[C@H](CO)NCC(c2ccccc2)c2ccccc2)cc1 [Z. 1415, (1S,2S)-1-(4-methylthiophenyl)-2-(2,2-diphenylethylamino)-1,3-propanediol] | 27 | 6 | 0.0029 µmol/kg | 49 nmols/kg | 17 | 
CSc1ccc([C@H](O)[C@H](CO)N(C)C(C)CCc2ccccc2)cc1 (some centres unmarked) [Z. 1428] | 30 | 2 |  |  |  | 
CSc1ccc([C@H](O)[C@H](CO)N2CCN(C(c3ccccc3)c3ccccc3)CC2)cc1 [Z. 1439] | 24 | 4 | 0.0033 µmol/kg | 23 nmols/kg | 7 | 
